Experiments:
[1] = biological target: Cyclin-dependent kinase 11A (Homo sapiens) (UniProt Q9UQ88); conditions: Compound concentration 1000.0 nM
[2] = biological target: Cyclin-dependent kinase 2 (Homo sapiens) (UniProt P24941); conditions: Compound concentration 1000.0 nM
[3] = biological target: Tyrosine-protein kinase ABL1 (Homo sapiens) (UniProt P00519); conditions: Compound concentration 1000.0 nM
[4] = biological target: Fibroblast growth factor receptor 3 (Homo sapiens) (UniProt P22607); conditions: Compound concentration 1000.0 nM
[5] = biological target: Serine/threonine-protein kinase Chk2 (Homo sapiens) (UniProt O96017); conditions: Compound concentration 1000.0 nM
[6] = biological target: Calcium/calmodulin-dependent protein kinase type 1D (Homo sapiens) (UniProt Q8IU85); conditions: Compound concentration 1000.0 nM
[7] = biological target: G protein-coupled receptor kinase 3 (Homo sapiens) (UniProt P35626); conditions: Compound concentration 1000.0 nM
[8] = biological target: Serine/threonine-protein kinase SIK3 (Homo sapiens) (UniProt Q9Y2K2); conditions: Compound concentration 1000.0 nM
[9] = tested on: Phosphatidylinositol 4,5-bisphosphate 3-kinase catalytic subunit alpha isoform (Homo sapiens), P42336 [E545A]; conditions: Compound concentration 1000.0 nM
[10] = biological target: Rhodopsin kinase GRK1 (Homo sapiens) (UniProt Q15835); conditions: Compound concentration 1000.0 nM
[11] = biological target: Ribosomal protein S6 kinase alpha-2 (Homo sapiens) (UniProt Q15349); conditions: Compound concentration 1000.0 nM
[12] = biological target: Serine/threonine-protein kinase 24 (Homo sapiens) (UniProt Q9Y6E0); conditions: Compound concentration 1000.0 nM
[13] = biological target: Protein kinase C eta type (Homo sapiens) (UniProt P24723); conditions: Compound concentration 1000.0 nM
[14] = biological target: Macrophage colony-stimulating factor 1 receptor (Homo sapiens) (UniProt P07333); conditions: Compound concentration 1000.0 nM
[15] = biological target: Rho-associated protein kinase 1 (Homo sapiens) (UniProt Q13464); conditions: Compound concentration 1000.0 nM
[16] = biological target: STE20/SPS1-related proline-alanine-rich protein kinase (Homo sapiens) (UniProt Q9UEW8); conditions: Compound concentration 1000.0 nM
[17] = biological target: Macrophage colony-stimulating factor 1 receptor (Homo sapiens) (UniProt P07333); conditions: Compound concentration 1000.0 nM; remark: listed apart in the source
[18] = tested on: Tyrosine-protein kinase ABL1 (Homo sapiens), P00519 [F317L]; conditions: Compound concentration 1000.0 nM
[19] = biological target: Tyrosine-protein kinase Lyn (Homo sapiens) (UniProt P07948); conditions: Compound concentration 1000.0 nM
[20] = biological target: Tyrosine-protein kinase SYK (Homo sapiens) (UniProt P43405); conditions: Compound concentration 1000.0 nM
[21] = biological target: Muscarinic acetylcholine receptor M5 (Homo sapiens) (UniProt P08912); conditions: Compound concentration 10.0 uM
[22] = biological target: SNF-related serine/threonine-protein kinase (Homo sapiens) (UniProt Q9NRH2); conditions: Compound concentration 1000.0 nM
[23] = biological target: Ephrin type-B receptor 3 (Homo sapiens) (UniProt P54753); conditions: Compound concentration 1000.0 nM
[24] = biological target: Dual specificity mitogen-activated protein kinase kinase 1 (Homo sapiens) (UniProt Q02750); conditions: Compound concentration 1000.0 nM
[25] = tested on: Epidermal growth factor receptor (Homo sapiens), P00533 [UNDEFINED MUTATION]; conditions: Compound concentration 1000.0 nM
[26] = biological target: Serine/threonine-protein kinase 3 (Homo sapiens) (UniProt Q13188); conditions: Compound concentration 1000.0 nM
[27] = biological target: Beta-3 adrenergic receptor (Homo sapiens) (UniProt P13945); conditions: Compound concentration 10.0 uM
[28] = biological target: Tyrosine-protein kinase HCK (Homo sapiens) (UniProt P08631); conditions: Compound concentration 1000.0 nM
[29] = tested on: Hepatocyte growth factor receptor (Homo sapiens), P08581 [Y1235D]; conditions: Compound concentration 1000.0 nM
[30] = biological target: Tyrosine-protein kinase Fes/Fps (Homo sapiens) (UniProt P07332); conditions: Compound concentration 1000.0 nM
[31] = biological target: Dual specificity mitogen-activated protein kinase kinase 6 (Homo sapiens) (UniProt P52564); conditions: Compound concentration 1000.0 nM
[32] = biological target: Ephrin type-A receptor 5 (Homo sapiens) (UniProt P54756); conditions: Compound concentration 1000.0 nM
[33] = biological target: Serine/threonine-protein kinase TAO2 (Homo sapiens) (UniProt Q9UL54); conditions: Compound concentration 1000.0 nM
[34] = biological target: Hormonally up-regulated neu tumor-associated kinase (Homo sapiens) (UniProt P57058); conditions: Compound concentration 1000.0 nM
[35] = biological target: Tyrosine-protein kinase Blk (Homo sapiens) (UniProt P51451); conditions: Compound concentration 1000.0 nM
[36] = biological target: Glycogen synthase kinase-3 beta (Homo sapiens) (UniProt P49841); conditions: Compound concentration 1000.0 nM
[37] = biological target: Casein kinase II subunit alpha' (Homo sapiens) (UniProt P19784); conditions: Compound concentration 1000.0 nM
[38] = tested on: Leucine-rich repeat serine/threonine-protein kinase 2 (Homo sapiens), Q5S007 [G2019S]; conditions: Compound concentration 1000.0 nM
[39] = biological target: Mitogen-activated protein kinase kinase kinase 15 (Homo sapiens) (UniProt Q6ZN16); conditions: Compound concentration 1000.0 nM
[40] = biological target: Ephrin type-A receptor 6 (Homo sapiens) (UniProt Q9UF33); conditions: Compound concentration 1000.0 nM
[41] = biological target: Mitogen-activated protein kinase 15 (Homo sapiens) (UniProt Q8TD08); conditions: Compound concentration 1000.0 nM
[42] = biological target: ALK tyrosine kinase receptor (Homo sapiens) (UniProt Q9UM73); conditions: Compound concentration 1000.0 nM
[43] = biological target: D(3) dopamine receptor (Homo sapiens) (UniProt P35462); conditions: Compound concentration 10.0 uM
[44] = tested on: Epidermal growth factor receptor (Homo sapiens), P00533 [UNDEFINED MUTATION]; conditions: Compound concentration 1000.0 nM; remark: listed apart in the source
[45] = biological target: LIM domain kinase 1 (Homo sapiens) (UniProt P53667); conditions: Compound concentration 1000.0 nM

Sequence of Macrophage colony-stimulating factor 1 receptor (Homo sapiens) (P07333 whole entry): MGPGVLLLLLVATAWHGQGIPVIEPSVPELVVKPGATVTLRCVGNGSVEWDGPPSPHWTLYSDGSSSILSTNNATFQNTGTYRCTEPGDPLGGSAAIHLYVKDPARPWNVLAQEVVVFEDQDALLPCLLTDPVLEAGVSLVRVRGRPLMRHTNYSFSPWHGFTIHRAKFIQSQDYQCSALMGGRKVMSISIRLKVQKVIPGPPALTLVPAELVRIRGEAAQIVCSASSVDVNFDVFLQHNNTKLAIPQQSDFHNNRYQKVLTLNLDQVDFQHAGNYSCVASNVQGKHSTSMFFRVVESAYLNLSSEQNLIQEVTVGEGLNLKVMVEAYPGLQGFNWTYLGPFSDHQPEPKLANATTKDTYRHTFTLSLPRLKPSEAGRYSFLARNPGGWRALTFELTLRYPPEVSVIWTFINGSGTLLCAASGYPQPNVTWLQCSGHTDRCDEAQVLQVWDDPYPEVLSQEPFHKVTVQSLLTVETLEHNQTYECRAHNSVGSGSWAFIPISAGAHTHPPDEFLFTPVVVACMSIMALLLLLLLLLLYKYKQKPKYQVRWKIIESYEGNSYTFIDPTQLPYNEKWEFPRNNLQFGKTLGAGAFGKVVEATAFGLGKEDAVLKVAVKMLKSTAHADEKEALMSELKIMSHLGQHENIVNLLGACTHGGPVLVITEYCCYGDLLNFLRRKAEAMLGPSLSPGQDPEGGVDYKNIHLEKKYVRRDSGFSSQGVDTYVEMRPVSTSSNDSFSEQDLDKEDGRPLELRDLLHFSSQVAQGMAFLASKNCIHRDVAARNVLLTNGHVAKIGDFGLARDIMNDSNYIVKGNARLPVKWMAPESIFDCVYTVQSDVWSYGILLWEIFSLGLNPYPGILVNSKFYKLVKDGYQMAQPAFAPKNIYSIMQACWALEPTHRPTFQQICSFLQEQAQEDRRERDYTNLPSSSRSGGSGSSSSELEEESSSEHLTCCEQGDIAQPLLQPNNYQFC
Sequence of Epidermal growth factor receptor (Homo sapiens), P00533 [UNDEFINED MUTATION] (P00533 whole entry, looked up, change not shown, the tested form may be a part): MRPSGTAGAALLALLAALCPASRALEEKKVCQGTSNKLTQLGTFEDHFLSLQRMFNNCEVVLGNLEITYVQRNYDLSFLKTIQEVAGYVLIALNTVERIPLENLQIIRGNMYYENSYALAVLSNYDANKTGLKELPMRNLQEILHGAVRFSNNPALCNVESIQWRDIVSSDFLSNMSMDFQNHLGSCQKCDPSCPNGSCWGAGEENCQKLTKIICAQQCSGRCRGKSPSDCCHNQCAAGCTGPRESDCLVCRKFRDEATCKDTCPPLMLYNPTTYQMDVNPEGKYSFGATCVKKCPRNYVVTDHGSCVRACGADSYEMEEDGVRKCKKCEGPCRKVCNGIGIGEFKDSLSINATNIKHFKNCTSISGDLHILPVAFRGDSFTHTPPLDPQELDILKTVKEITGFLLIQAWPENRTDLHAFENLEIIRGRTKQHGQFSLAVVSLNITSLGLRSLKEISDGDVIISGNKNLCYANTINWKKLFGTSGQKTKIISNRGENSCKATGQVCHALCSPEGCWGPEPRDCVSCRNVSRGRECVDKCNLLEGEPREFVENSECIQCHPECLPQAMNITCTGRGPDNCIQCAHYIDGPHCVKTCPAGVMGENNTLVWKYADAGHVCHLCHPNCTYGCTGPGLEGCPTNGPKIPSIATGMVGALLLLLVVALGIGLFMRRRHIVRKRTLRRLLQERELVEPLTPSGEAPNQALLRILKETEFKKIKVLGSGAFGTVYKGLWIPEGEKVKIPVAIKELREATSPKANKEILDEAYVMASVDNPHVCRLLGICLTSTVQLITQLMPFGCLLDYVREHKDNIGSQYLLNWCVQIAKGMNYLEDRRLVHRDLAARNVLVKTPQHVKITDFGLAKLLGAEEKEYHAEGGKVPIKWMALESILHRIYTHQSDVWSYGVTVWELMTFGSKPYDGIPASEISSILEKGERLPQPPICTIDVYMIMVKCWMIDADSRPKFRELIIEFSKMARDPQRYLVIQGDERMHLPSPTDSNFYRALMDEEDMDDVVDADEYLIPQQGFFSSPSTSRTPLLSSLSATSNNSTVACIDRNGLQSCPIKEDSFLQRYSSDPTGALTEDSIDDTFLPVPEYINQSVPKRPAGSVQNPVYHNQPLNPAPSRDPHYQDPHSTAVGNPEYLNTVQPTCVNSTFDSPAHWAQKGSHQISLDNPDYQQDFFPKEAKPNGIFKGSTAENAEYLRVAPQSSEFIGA
Sequence of Phosphatidylinositol 4,5-bisphosphate 3-kinase catalytic subunit alpha isoform (Homo sapiens), P42336 [E545A] (P42336 whole entry E545A, canonical isoform): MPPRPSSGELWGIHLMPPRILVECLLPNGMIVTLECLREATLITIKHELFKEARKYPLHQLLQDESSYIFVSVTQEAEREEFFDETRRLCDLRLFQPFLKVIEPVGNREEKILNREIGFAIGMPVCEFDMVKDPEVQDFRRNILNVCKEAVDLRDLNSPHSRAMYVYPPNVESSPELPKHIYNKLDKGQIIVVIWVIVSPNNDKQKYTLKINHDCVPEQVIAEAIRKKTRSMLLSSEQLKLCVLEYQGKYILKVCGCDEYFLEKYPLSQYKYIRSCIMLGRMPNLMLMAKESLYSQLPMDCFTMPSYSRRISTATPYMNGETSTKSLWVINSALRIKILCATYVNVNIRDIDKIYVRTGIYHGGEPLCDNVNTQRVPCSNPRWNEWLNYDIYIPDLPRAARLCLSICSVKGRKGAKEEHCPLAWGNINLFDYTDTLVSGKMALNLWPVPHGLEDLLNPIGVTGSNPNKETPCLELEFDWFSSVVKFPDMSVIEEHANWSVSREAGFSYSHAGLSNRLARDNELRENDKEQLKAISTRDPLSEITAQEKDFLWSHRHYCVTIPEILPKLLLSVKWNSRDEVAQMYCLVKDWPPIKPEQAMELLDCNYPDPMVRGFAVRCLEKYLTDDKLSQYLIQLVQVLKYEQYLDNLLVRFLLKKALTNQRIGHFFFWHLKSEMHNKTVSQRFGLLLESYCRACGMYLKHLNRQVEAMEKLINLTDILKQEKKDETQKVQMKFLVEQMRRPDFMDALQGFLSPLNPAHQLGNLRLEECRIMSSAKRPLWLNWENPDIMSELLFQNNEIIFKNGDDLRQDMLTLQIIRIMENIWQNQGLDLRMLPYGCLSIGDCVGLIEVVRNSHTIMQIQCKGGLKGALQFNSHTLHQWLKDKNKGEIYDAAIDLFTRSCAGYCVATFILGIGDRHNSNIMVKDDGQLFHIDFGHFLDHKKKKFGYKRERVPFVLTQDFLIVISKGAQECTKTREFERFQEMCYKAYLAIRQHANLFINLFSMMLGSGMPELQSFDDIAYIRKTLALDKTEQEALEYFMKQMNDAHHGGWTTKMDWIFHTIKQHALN
Sequence of Tyrosine-protein kinase HCK (Homo sapiens) (P08631 2-526 limits assumed): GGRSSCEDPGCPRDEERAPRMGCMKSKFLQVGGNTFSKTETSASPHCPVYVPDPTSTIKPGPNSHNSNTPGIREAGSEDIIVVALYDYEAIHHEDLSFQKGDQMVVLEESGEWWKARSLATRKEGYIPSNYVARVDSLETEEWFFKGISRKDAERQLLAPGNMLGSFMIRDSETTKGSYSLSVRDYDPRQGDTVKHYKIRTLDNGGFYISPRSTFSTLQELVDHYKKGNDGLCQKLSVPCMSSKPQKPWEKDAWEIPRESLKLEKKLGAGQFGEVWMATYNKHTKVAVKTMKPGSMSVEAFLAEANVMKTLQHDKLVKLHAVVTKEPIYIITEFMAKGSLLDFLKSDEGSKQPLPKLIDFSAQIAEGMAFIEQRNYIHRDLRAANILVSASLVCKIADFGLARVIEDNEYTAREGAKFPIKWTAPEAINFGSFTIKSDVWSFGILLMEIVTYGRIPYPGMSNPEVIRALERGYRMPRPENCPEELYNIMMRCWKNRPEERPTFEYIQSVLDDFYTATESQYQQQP
Sequence of Muscarinic acetylcholine receptor M5 (Homo sapiens) (P08912 whole entry): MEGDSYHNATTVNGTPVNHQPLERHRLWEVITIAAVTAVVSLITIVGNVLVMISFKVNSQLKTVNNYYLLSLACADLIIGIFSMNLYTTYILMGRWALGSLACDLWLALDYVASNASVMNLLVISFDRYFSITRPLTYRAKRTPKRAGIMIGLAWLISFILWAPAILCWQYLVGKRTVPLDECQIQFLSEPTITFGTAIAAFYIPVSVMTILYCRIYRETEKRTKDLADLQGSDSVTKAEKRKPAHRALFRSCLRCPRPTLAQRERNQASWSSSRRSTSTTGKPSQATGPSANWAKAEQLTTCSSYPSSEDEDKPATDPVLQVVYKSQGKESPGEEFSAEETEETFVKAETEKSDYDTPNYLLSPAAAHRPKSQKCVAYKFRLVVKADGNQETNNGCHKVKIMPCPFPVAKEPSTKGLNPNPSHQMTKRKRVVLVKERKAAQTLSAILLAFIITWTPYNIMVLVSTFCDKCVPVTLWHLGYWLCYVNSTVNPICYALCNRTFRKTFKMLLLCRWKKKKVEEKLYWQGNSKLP
Sequence of SNF-related serine/threonine-protein kinase (Homo sapiens) (Q9NRH2 whole entry): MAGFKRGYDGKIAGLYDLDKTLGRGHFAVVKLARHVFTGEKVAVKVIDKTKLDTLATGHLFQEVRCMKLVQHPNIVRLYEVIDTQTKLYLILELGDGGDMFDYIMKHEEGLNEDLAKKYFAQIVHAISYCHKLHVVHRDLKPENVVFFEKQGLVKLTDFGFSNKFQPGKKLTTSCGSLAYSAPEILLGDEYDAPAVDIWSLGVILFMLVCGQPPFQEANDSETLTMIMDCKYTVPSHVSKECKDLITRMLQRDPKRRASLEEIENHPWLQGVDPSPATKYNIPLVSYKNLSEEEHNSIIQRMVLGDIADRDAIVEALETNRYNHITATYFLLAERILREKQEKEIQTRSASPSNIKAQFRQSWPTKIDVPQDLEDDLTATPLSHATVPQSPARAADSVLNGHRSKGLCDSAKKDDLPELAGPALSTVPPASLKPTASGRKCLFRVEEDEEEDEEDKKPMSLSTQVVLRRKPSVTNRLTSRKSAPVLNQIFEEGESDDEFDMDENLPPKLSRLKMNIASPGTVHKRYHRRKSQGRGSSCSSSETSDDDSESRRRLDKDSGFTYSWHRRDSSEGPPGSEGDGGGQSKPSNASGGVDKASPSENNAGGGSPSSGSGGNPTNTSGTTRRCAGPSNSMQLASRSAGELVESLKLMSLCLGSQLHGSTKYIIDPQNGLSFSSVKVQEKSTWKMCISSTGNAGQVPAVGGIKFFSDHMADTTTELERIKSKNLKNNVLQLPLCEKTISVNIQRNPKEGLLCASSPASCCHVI

CO[C@@H](C)c1c(Nc2ccc([C@H](N(C)C(=O)C3CCS(=O)(=O)CC3)C(F)(F)F)cc2)cnc2cc(Cl)nn12 [NVS-MALT1]
inactive: residual activity [1] 93% | residual activity [2] 88% | residual activity [3] 63% | residual activity [4] 88% | residual activity [5] 90% | residual activity [6] 99% | residual activity [7] 100% | residual activity [8] 100% | residual activity [9] 65% | residual activity [10] 82% | residual activity [11] 79% | residual activity [12] 83% | residual activity [13] 86% | residual activity [14] 95% | residual activity [15] 100% | residual activity [16] 50% | residual activity [17] 77% | residual activity [18] 100% | residual activity [19] 77% | residual activity [20] 82% | inhibition [21] 14.6% | residual activity [22] 100% | residual activity [23] 100% | residual activity [24] 100% | residual activity [25] 98% | residual activity [26] 92% | inhibition [27] 15.4% | residual activity [28] 100% | residual activity [29] 100% | residual activity [30] 100% | residual activity [31] 91% | residual activity [32] 100% | residual activity [33] 88% | residual activity [34] 100% | residual activity [35] 87% | residual activity [36] 100% | residual activity [37] 100% | residual activity [38] 100% | residual activity [39] 100% | residual activity [40] 100% | residual activity [41] 87% | residual activity [42] 100% | inhibition [43] -4.43% | residual activity [44] 100% | residual activity [45] 100%

CO[C@@H](C)c1c(Nc2ccc([C@@H](N(C)C(=O)C3CCS(=O)(=O)CC3)C(F)(F)F)cc2)cnc2cc(Cl)nn12 [NVS-MALT1-C]
inactive: residual activity [1] 100% | residual activity [2] 100% | residual activity [3] 74% | residual activity [4] 90% | residual activity [5] 100% | residual activity [6] 100% | residual activity [7] 91% | residual activity [8] 100% | residual activity [9] 77% | residual activity [10] 86% | residual activity [11] 89% | residual activity [12] 89% | residual activity [13] 78% | residual activity [14] 88% | residual activity [15] 100% | residual activity [16] 50% | residual activity [17] 72% | residual activity [18] 100% | residual activity [19] 97% | residual activity [20] 90% | inhibition [21] 7.57% | residual activity [22] 100% | residual activity [23] 100% | residual activity [24] 100% | residual activity [25] 100% | residual activity [26] 100% | inhibition [27] 12.9% | residual activity [28] 100% | residual activity [29] 85% | residual activity [30] 100% | residual activity [31] 92% | residual activity [32] 100% | residual activity [33] 94% | residual activity [34] 100% | residual activity [35] 56% | residual activity [36] 100% | residual activity [37] 100% | residual activity [38] 100% | residual activity [39] 100% | residual activity [40] 100% | residual activity [41] 81% | residual activity [42] 100% | inhibition [43] -5.92% | residual activity [44] 100% | residual activity [45] 92%

— ChEMBL document CHEMBL4507320, “Data for DCP probe NVS-MALT1” (2021)
